The subject of the experiment is AMP-activated protein kinase (AMPK). Briefly: ADP Quest assay for AMPK activators. In kind it is biochemical. Details: key: fold AMPK activation with vs without activator at 30 µM. The following applies: fold of AMPK activation to phosphorylate SAMS peptide without and with an activator at the concentration of 30 µM. The method in brief: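 E30, the fold increase in SAMS peptide phosphorylation at 30 µM compound relative to no activator, is derived from kinetic fluorescent detection of ADP (ex 530, em 590 nm). AMPK starts the ATP-containing reaction at room temperature; compounds span […] by 2-fold steps, AMP serves as reference.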
`CC(C)(C)c1ccc(-c2cccc(C3Nc4c(cc(Cl)cc4C(=O)NS(C)(=O)=O)CC3(C)C)c2)cc1` (centres unmarked) [Example 144, N-[2-(4′-tert-Butyl-biphenyl-3-yl)-6-chloro-3,3-dimethyl-1,2,3,4-tetrahydro-quinoline-8-carbonyl]-methanesulfonamide] had an E30 of 1.25.
Molecule `CCc1nnnn1-c1cccc(C2Nc3ccc(C(=O)NS(=O)(=O)C4CC4)cc3CC2(C)C)c1` (centres unmarked) [Example 145, Cyclopropanesulfonic acid {2-[3-(5-ethyl-tetrazol-1-yl)-phenyl]-3,3-dimethyl-1,2,3,4-tetrahydro-quinoline-6-carbonyl}-amide] registered an E30 of 1.22.
The figure for `CCc1nnnn1-c1cccc(C2Nc3ccc(C(=O)NS(C)(=O)=O)cc3CC2(C)C)c1` (centres unmarked) [Example 146, N-{2-[3-(5-Ethyl-tetrazol-1-yl)-phenyl]-3,3-dimethyl-1,2,3,4-tetrahydro-quinoline-6-carbonyl}-methanesulfonamide] is 1.21; for `CC1(C)Cc2cc(C(=O)O)ccc2NC1c1cccc(-n2nnnc2Cc2ccccc2)c1` (centres unmarked) [Example 147, 2-[3-(5-Benzyl-tetrazol-1-yl)-phenyl]-3,3-dimethyl-1,2,3,4-tetrahydro-quinoline-6-carboxylic acid] it is 1.35.
The figure for `CCc1nnnn1-c1cccc(C2Nc3ccc(C(=O)O)cc3CC2(C)C)c1` (centres unmarked) [Example 148, 2-[3-(5-Ethyl-tetrazol-1-yl)-phenyl]-3,3-dimethyl-1,2,3,4-tetrahydro-quinoline-6-carboxylic acid] is 1.3; for `CC1(C)Cc2c(cc(Cl)cc2C(=O)NS(C)(=O)=O)NC1c1cccc(N2CCOCC2)c1` (centres unmarked) [Example 149, N-[7-Chloro-3,3-dimethyl-2-(3-morpholin-4-yl-phenyl)-1,2,3,4-tetrahydro-quinoline-5-carbonyl]-methanesulfonamide] it is 1.26.
Regarding `CC1(C)Cc2c(C(=O)NS(=O)(=O)C3CC3)ccc(F)c2NC1c1cccc(N2CCOCC2)c1` (centres unmarked) [Example 150, Cyclopropanesulfonic acid [8-fluoro-3,3-dimethyl-2-(3-morpholin-4-yl-phenyl)-1,2,3,4-tetrahydro-quinoline-5-carbonyl]-amide], the E30 is given as 1.22.
For `CC(C)(C)c1ccc(-c2cccc(C3Nc4ccc(F)c(C(=O)O)c4CC3(C)C)c2)cc1` (centres unmarked) [Example 151, 2-(4′-tert-Butyl-biphenyl-3-yl)-6-fluoro-3,3-dimethyl-1,2,3,4-tetrahydro-quinoline-5-carboxylic acid] the value was 1.66; for `Cc1ccccc1N1CCN(c2cccc(C3Nc4ccc(C(=O)O)cc4CC3(C)C)c2)CC1` (centres unmarked) [Example 152, 3,3-Dimethyl-2-[3-(4-o-tolyl-piperazin-1-yl)-phenyl]-1,2,3,4-tetrahydroquinoline-6-carboxylic acid], 1.41; for `CC1(C)Cc2cc(C(=O)NS(=O)(=O)C3CC3)ccc2NC1c1cccc(N2CC(F)C2)c1` (centres unmarked) [Example 153, Cyclopropanesulfonic acid {2-[3-(3-fluoro-azetidin-1-yl)-phenyl]-3,3-dimethyl-1,2,3,4-tetrahydro-quinoline-6-carbonyl}-amide], 1.27.
Molecule `CC1(C)Cc2cc(C(=O)NS(C)(=O)=O)ccc2NC1c1cccc(N2CC(F)C2)c1` (centres unmarked) [Example 154, N-{2-[3-(3-Fluoro-azetidin-1-yl)-phenyl]-3,3-dimethyl-1,2,3,4-tetrahydro-quinoline-6-carbonyl}-methanesulfonamide] had an E30 of 1.24.
As to `Cc1ccccc1N1CCN(c2cccc(C3Nc4ccc(C(=O)NS(C)(=O)=O)cc4CC3(C)C)c2)CC1` (centres unmarked) [Example 155, N-{3,3-Dimethyl-2-[3-(4-o-tolyl-piperazin-1-yl)-phenyl]-1,2,3,4-tetrahydro-quinoline-6-carbonyl}-methanesulfonamide], the E30 is 1.19.
Molecule `CC(C)(C)c1ccc(-c2cccc(C3Nc4ccc(F)c(C(=O)NS(=O)(=O)C5CC5)c4CC3(C)C)c2)cc1` (centres unmarked) [Example 156, Cyclopropanesulfonic acid [2-(4′-tert-butyl-biphenyl-3-yl)-6-fluoro-3,3-dimethyl-1,2,3,4-tetrahydro-quinoline-5-carbonyl]-amide] registered an E30 of 1.66.
Molecule `CC(C)(C)c1ccc(-c2cccc(C3Nc4ccc(F)c(C(=O)NS(C)(=O)=O)c4CC3(C)C)c2)cc1` (centres unmarked) [Example 157, N-[2-(4′-tert-Butyl-biphenyl-3-yl)-6-fluoro-3,3-dimethyl-1,2,3,4-tetrahydro-quinoline-5-carbonyl]-methanesulfonamide] displayed an E30 of 1.36.
In the case of `CC1(C)Cc2cc(C(=O)O)ccc2NC1c1ccccc1` (centres unmarked) [Example 158, 3,3-Dimethyl-2-phenyl-1,2,3,4-tetrahydro-quinoline-6-carboxylic acid], the E30 is recorded as 1.34.
With `CC(C)NC(=O)c1ccc(-c2cccc(C3Nc4ccc(C(=O)O)cc4CC3(C)C)c2)cc1` (centres unmarked) [Example 159, 2-(4′-Isopropylcarbamoyl-biphenyl-3-yl)-3,3-dimethyl-1,2,3,4-tetrahydro-quinoline-6-carboxylic acid], the E30 is 1.31.
On to `CC(C)(C)NC(=O)c1ccc(-c2cccc(C3Nc4ccc(C(=O)NS(C)(=O)=O)cc4CC3(C)C)c2)cc1` (centres unmarked) [Example 160, 3′-(6-Methanesulfonylaminocarbonyl-3,3-dimethyl-1,2,3,4-tetrahydro-quinolin-2-yl)-biphenyl-4-carboxylic acid tert-butylamide], for which the E30 is 1.23.
On to `CC1(C)Cc2cc(C(=O)NS(=O)(=O)C3CC3)ccc2NC1c1cccc(-c2ccc(S(C)(=O)=O)cc2)c1` (centres unmarked) [Example 161, Cyclopropanesulfonic acid [2-(4′-methanesulfonyl-biphenyl-3-yl)-3,3-dimethyl-1,2,3,4-tetrahydro-quinoline-6-carbonyl]-amide], for which the E30 amounted to 1.21.
Turning to `CC(C)(C)NC(=O)c1ccc(-c2cccc(C3Nc4ccc(C(=O)O)cc4CC3(C)C)c2)cc1` (centres unmarked) [Example 162, 2-(4′-tert-Butylcarbamoyl-biphenyl-3-yl)-3,3-dimethyl-1,2,3,4-tetrahydro-quinoline-6-carboxylic acid], the E30 is 1.2.
`CC(C)(Nc1ccccc1C1Nc2ccc(C(=O)O)cc2CC1(C)C)C(=O)O` (centres unmarked) [Example 163, 2-[2-(1-Carboxy-1-methyl-ethylamino)-phenyl]-3,3-dimethyl-1,2,3,4-tetrahydro-quinoline-6-carboxylic acid]: the E30 stood at 3.68.
With `CC1(C)Cc2cc(C(=O)O)ccc2NC1c1ccccc1NC1(C(=O)O)CC1` (centres unmarked) [Example 164, 2-[2-(1-Carboxy-cyclopropylamino)-phenyl]-3,3-dimethyl-1,2,3,4-tetrahydro-quinoline-6-carboxylic acid], the E30 worked out at 1.78.
Regarding `CN1CCC(NC(=O)c2cccc(C3Nc4ccc(C(=O)O)cc4CC3(C)C)c2)C1` (centres unmarked) [Example 165, 3,3-dimethyl-2-(3-(1-methylpyrrolidin-3-ylcarbamoyl)phenyl)-1,2,3,4-tetrahydroquinoline-6-carboxylic acid], the E30 was 1.53.
The figure for `CC(C)S(=O)(=O)Nc1cccc(C2Nc3ccc(C(=O)O)cc3CC2(C)C)c1` (centres unmarked) [Example 166, 3,3-Dimethyl-2-(3-(1-methylethylsulfonamido)phenyl)-1,2,3,4-tetrahydroquinoline-6-carboxylic acid] is 1.43; for `CC1(C)Cc2cc(C(=O)O)ccc2NC1c1cccc(C(=O)NC2CCOC2)c1` (centres unmarked) [Example 167, 3,3-Dimethyl-2-(3-(tetrahydrofuran-3-ylcarbamoyl)phenyl)-1,2,3,4-tetrahydroquinoline-6-carboxylic acid] it is 1.4; for `CC1(C)Cc2cc(C(=O)O)ccc2NC1c1ccc(NS(=O)(=O)c2ccccc2)cc1` (centres unmarked) [Example 168, 3,3-Dimethyl-2-(4-(phenylsulfonamido)phenyl)-1,2,3,4-tetrahydroquinoline-6-carboxylic acid] it is 1.39.
`CC(=O)Nc1ccc(S(=O)(=O)Nc2cccc(C3Nc4ccc(C(=O)O)cc4CC3(C)C)c2)cc1` (centres unmarked) [Example 169, 2-(3-(4-Acetamidophenylsulfonamido)phenyl)-3,3-dimethyl-1,2,3,4-tetrahydroquinoline-6-carboxylic acid]: the E30 came out at 1.38.
In the case of `CC1(C)Cc2cc(C(=O)O)ccc2NC1c1cccc(C(=O)NC2CC2)c1` (centres unmarked) [Example 170, 2-(3-(Cyclopropylcarbamoyl)phenyl)-3,3-dimethyl-1,2,3,4-tetrahydroquinoline-6-carboxylic acid], the E30 was 1.36.
As to `CC1(C)Cc2cc(C(=O)O)ccc2NC1c1cccc(C(=O)N2CCCC2)c1` (centres unmarked) [Example 171, 3,3-Dimethyl-2-(3-(pyrrolidine-1-carbonyl)phenyl)-1,2,3,4-tetrahydroquinoline-6-carboxylic acid], the E30 was determined as 1.36.
Consider `CC1(C)Cc2cc(C(=O)O)ccc2NC1c1cccc(C(=O)NC2CCC2)c1` (centres unmarked) [Example 172, 2-(3-(Cyclobutylcarbamoyl)phenyl)-3,3-dimethyl-1,2,3,4-tetrahydroquinoline-6-carboxylic acid], for which the E30 turned out to be 1.34.
`CC(C)NC(=O)c1cccc(C2Nc3ccc(C(=O)O)cc3CC2(C)C)c1` (centres unmarked) [Example 173, 2-(3-(Isopropylcarbamoyl)phenyl)-3,3-dimethyl-1,2,3,4-tetrahydroquinoline-6-carboxylic acid] gave an E30 of 1.24.
Consider `CC(C)C(=O)Nc1cc(C2Nc3ccc(C(=O)O)cc3CC2(C)C)ccc1F` (centres unmarked) [Example 174, 2-(4-Fluoro-3-isobutyramidophenyl)-3,3-dimethyl-1,2,3,4-tetrahydroquinoline-6-carboxylic acid], for which the E30 is 1.54.
As for `CC1(C)Cc2cc(C(=O)O)ccc2NC1c1cccc(C(=O)NS(=O)(=O)c2ccccc2)c1` (centres unmarked) [Example 175, 3,3-Dimethyl-2-(3-(phenylsulfonylcarbamoyl)phenyl)-1,2,3,4-tetrahydroquinoline-6-carboxylic acid], the E30 came to 1.5.

These data come from patent US8586747B2, “3,3-dimethyl tetrahydroquinoline derivatives” (Hoffmann-La Roche Inc., priority 2010, dated 2013).
